Reference: US12077503B2, “Substituted cyclic amides and their use as herbicides” (FMC CORPORATION, priority 2015, dated 2024)

How the values were obtained:
Type in all cases: in vivo
[1] = system: barnyardgrass (Echinochloa crus-galli); test: Test B flooded paddy test; settings: Echinochloa crus-galli, 250 g ai/ha, Flood; 0 to 100 scale where 0 is no effect and 100 is complete control; read-out: Barnyardgrass plant response rating
Summary of the method: (§1)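 Plants at 2-leaf stage flooded to 3 cm above soil, with compounds applied directly to paddy water and that depth maintained. Plants kept in greenhouse 13–15 d. Visual rating versus controls on a 0 (no effect) to 100 (complete control) scale.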

rice (Oryra sativa) = test: Test B flooded paddy test; settings: Oryza sativa, 250 g ai/ha, Flood; 0 to 100 scale where 0 is no effect and 100 is complete control; read-out: Rice plant response rating
Summary of the method: as §1

[2] = system: ducksalad (Heteranthera limosa); test: Test B flooded paddy test; settings: Heteranthera limosa, 250 g ai/ha, Flood; 0 to 100 scale where 0 is no effect and 100 is complete control; read-out: Ducksalad plant response rating
Summary of the method: as §1

[3] = system: sedge, umbrella (small-flower umbrella sedge, Cyperus difformis); test: Test B flooded paddy test; settings: Cyperus difformis, 250 g ai/ha, Flood; 0 to 100 scale where 0 is no effect and 100 is complete control; read-out: Sedge, Umbrella plant response rating
Summary of the method: as §1

[4] = system: barnyardgrass (Echinochloa crus-galli); test: Test A postemergence; settings: Echinochloa crus-galli, post-emergence, 240 h, Postemergence
Summary of the method: (§2)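 Seeded soil received test chemicals as a preemergence directed spray, and seedlings at one to two leaves, 2–10 cm tall, received them postemergence, in a non-phytotoxic, surfactant-containing solvent mixture. Pots were held in a greenhouse for approximately 10 d, then rated for injury from 0, no effect, to 100, complete control.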

[5] = system: pigweed (Amaranthus retroflexus); test: Test A postemergence; settings: Amaranthus retroflexus, post-emergence, 240 h, Postemergence, read-out: Pigweed plant response rating (0 to 100 scale)
Summary of the method: as §2

[6] = system: wheat (Triticum aestivum); test: Test A postemergence; settings: Triticum aestivum, post-emergence, 240 h, Postemergence, read-out: Wheat plant response rating (0 to 100 scale)
Summary of the method: as §2

[7] = system: giant foxtail (Setaria faberii); test: Test A postemergence; settings: Setaria faberi, post-emergence, 240 h, Postemergence, read-out: Foxtail, Giant plant response rating (0 to 100 scale)
Summary of the method: as §2

[8] = system: blackgrass (Alopecurus myosuroides); test: Test A postemergence; settings: Alopecurus myosuroides, post-emergence, 240 h, Postemergence, read-out: Blackgrass plant response rating (0 to 100 scale)
Summary of the method: as §2

corn (Zea mays) = test: Test A postemergence; settings: Zea mays, post-emergence, 240 h, Postemergence, read-out: Corn plant response rating (0 to 100 scale)
Summary of the method: as §2

Kochia (Kochia scoparia) [9] = test: Test A postemergence; settings: Bassia scoparia, post-emergence, 240 h, Postemergence, read-out: Kochia plant response rating (0 to 100 scale)
Summary of the method: as §2

[10] = system: Galium (catchweed bedstraw, Galium aparine); test: Test A postemergence; settings: Galium, post-emergence, 240 h, Postemergence, read-out: Galium plant response rating (0 to 100 scale)
Summary of the method: as §2

[11] = system: ragweed (common ragweed, Ambrosia elatior); test: Test A postemergence; settings: Ambrosia artemisiifolia, post-emergence, 240 h, Postemergence, read-out: Ragweed plant response rating (0 to 100 scale)
Summary of the method: as §2

[12] = system: ryegrass, Italian (Italian ryegrass, Lolium multiflorum); test: Test A postemergence; settings: Lolium multiflorum, post-emergence, 240 h, Postemergence, read-out: Ryegrass, Italian plant response rating (0 to 100 scale)
Summary of the method: as §2

[13] = system: barnyardgrass (Echinochloa crus-galli); test: Test A preemergence; settings: Echinochloa crus-galli, pre-emergence, 240 h, 0 to 100 scale where 0 is no effect and 100 is complete control, read-out: Barnyardgrass plant response rating
Summary of the method: as §2

[14] = system: pigweed (Amaranthus retroflexus); test: Test A preemergence; settings: Amaranthus retroflexus, pre-emergence, 240 h, 0 to 100 scale where 0 is no effect and 100 is complete control, read-out: Pigweed plant response rating
[15] = system: giant foxtail (Setaria faberii); test: Test A preemergence; settings: Setaria faberi, pre-emergence, 240 h, 0 to 100 scale where 0 is no effect and 100 is complete control, read-out: Foxtail, Giant plant response rating
Summary of the method: as §2

Kochia (Kochia scoparia) [16] = test: Test A preemergence; settings: Bassia scoparia, pre-emergence, 240 h, 0 to 100 scale where 0 is no effect and 100 is complete control, read-out: Kochia plant response rating
Summary of the method: as §2

[17] = system: ragweed (common ragweed, Ambrosia elatior); test: Test A preemergence; settings: Ambrosia artemisiifolia, pre-emergence, 240 h, 0 to 100 scale where 0 is no effect and 100 is complete control, read-out: Ragweed plant response rating
Summary of the method: as §2

[18] = system: ryegrass, Italian (Italian ryegrass, Lolium multiflorum); test: Test A preemergence; settings: Lolium multiflorum, pre-emergence, 240 h, 0 to 100 scale where 0 is no effect and 100 is complete control, read-out: Ryegrass, Italian plant response rating
Summary of the method: as §2

[19] = 125 g ai/ha, visual rating about 10 d after treatment
[20] = 31 g ai/ha, 0 is no effect, 100 is complete control
[21] = 125 g ai/ha, preemergence, visual injury rating, approximately 10 d

CN1C[C@H](c2csc3c2CCOC3)[C@@H](C(=O)Nc2cccc(F)c2F)C1=O [Compound 1268]
pest or weed control at 250 g/ha [1]: 85% | pest or weed control at 250 g/ha (rice (Oryra sativa)): 20% | pest or weed control at 250 g/ha [2]: 95% | pest or weed control at 250 g/ha [3]: 0% | pest or weed control at 125 g/ha ([4]; 125 g ai/ha, visual rating about 10 d after treatment, read-out: Barnyardgrass plant response rating (0 to 100 scale, 0 no effect, 100 complete control)): 90% | pest or weed control at 31 g/ha ([4]; 31 g ai/ha, 0 is no effect, 100 is complete control, read-out: Barnyardgrass plant response rating (0 to 100 scale)): 80% | pest or weed control at 125 g/ha [5, 19]: 0% | pest or weed control at 31 g/ha [5, 20]: 0% | plant injury at 125 g/ha [6, 19]: 0% | plant injury at 31 g/ha [6, 20]: 0% | pest or weed control at 125 g/ha [7, 19]: 90% | pest or weed control at 31 g/ha [7, 20]: 50% | pest or weed control at 125 g/ha [8, 19]: 0% | pest or weed control at 31 g/ha [8, 20]: 0% | plant injury at 125 g/ha (corn (Zea mays); [19]): 0% | plant injury at 31 g/ha (corn (Zea mays); [20]): 0% | pest or weed control at 125 g/ha (Kochia (Kochia scoparia) [9]; [19]): 0% | pest or weed control at 31 g/ha (Kochia (Kochia scoparia) [9]; [20]): 0% | pest or weed control at 125 g/ha [10, 19]: 0% | pest or weed control at 31 g/ha [10, 20]: 0% | pest or weed control at 125 g/ha [11, 19]: 0% | pest or weed control at 31 g/ha [11, 20]: 0% | pest or weed control at 125 g/ha [12, 19]: 20% | pest or weed control at 31 g/ha [12, 20]: 0% | pest or weed control at 31 g/ha ([13]; 31 g ai/ha, Preemergence): 90% | pest or weed control at 125 g/ha [13, 21]: 90% | pest or weed control at 31 g/ha ([14]; 31 g ai/ha, Preemergence): 0% | pest or weed control at 125 g/ha [14, 21]: 0% | pest or weed control at 31 g/ha ([15]; 31 g ai/ha, Preemergence): 70% | pest or weed control at 125 g/ha [15, 21]: 90% | pest or weed control at 31 g/ha (Kochia (Kochia scoparia) [16]; 31 g ai/ha, Preemergence): 0% | pest or weed control at 125 g/ha (Kochia (Kochia scoparia) [16]; [21]): 0% | pest or weed control at 31 g/ha ([17]; 31 g ai/ha, Preemergence): 0% | pest or weed control at 125 g/ha [17, 21]: 0% | pest or weed control at 31 g/ha ([18]; 31 g ai/ha, Preemergence): 0% | pest or weed control at 125 g/ha [18, 21]: 20%
